For 15 molecules, TGI and GI50 results are on record in PubChem BioAssay (NCI).

Where “and” joins values, the source holds several entries; their conditions need not be identical. Identical values can stand only once.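 Five concentrations, 48 hours, 96-well plates. Abbreviation: GI50, concentration required for 50% inhibition of growth. TGI denotes the concentration required for complete inhibition of growth.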

The test system of one assay is OVCAR-8 ovarian. In words: inhibition of tumour cell growth, NCI panel, 48 h.
With `CC1=CCCC(OC(N)=O)C1` (configuration not stated), the TGI is > 100 µM.
Still for that read-out and setting: next, `c1ccc(-c2nnc(-c3nn(-c4ccccc4)c4nc5ccccc5nc34)o2)cc1`: > 100 µM.
Turning to `COc1ccc(N=Cc2cc(OC)c(OC)c(OC)c2)cc1`, the TGI was > 100 µM.
The same measure, in the same setting: next, `COc1cc([C@@H]2c3cc4c(cc3[C@@H](NC(=O)c3cccc([N+](=O)[O-])c3)C3COC(=O)[C@@H]32)OCO4)cc(OC)c1O` (some centres not stated): 7.06 µM; `O=C1/C(=C/c2ccccc2)CN(C(=O)Oc2ccc(Cl)cc2)C/C1=C\c1ccccc1`: 3.6 µM.
In turn, `CC1=C[C@@H]2Cc3occc3C(C)(C)[C@@H]2CC1` had a TGI of 37.5 µM.
As to `O=C(O)c1cc(S(=O)(=O)N=NC=C2c3ccccc3N(O)c3ccccc32)ccc1O`, the TGI was > 100 µM.
In the case of `C/C(=N\NC(N)=S)c1ccc(C)cc1C`, the TGI is > 100 µM.
On the same count and under the same terms, next, `COc1ccc(/C=C(/C(=O)O)c2cc(OC)c(OC)c(OC)c2)cc1`: > 100 µM.
Same read-out and setting: next, `OCc1c(-c2cccc3ccccc23)sc(-c2cccc3ccccc23)c1CO`: 25.7 µM; `O=c1c(Cl)c(Cl)cnn1-c1ccccc1`: 6.05 µM and 11.5 µM.
For the molecule `OCCNCO`, the TGI was > 100 µM.
On the same count and under the same terms, the result for `O=C(N/N=C/c1cccc(O)c1O)N/N=C/c1cccc(O)c1O` reads > 100 µM; that for `COc1cc2c(c(O)c1C)C(=O)C(Cl)=CC2=O`, 45 µM.
As to `C[Si](C)(C)c1ccc(CC2(Cc3ccc([Si](C)(C)C)cc3)CCNC2)cc1`, the TGI was 3.35 µM.

In a further assay the test system is NCI-H23 lung. Description: inhibition of tumour cell growth, NCI panel, 48 h.
In the case of `CC1=CCCC(OC(N)=O)C1` (configuration not stated), the TGI is > 100 µM.
Still for that read-out and setting: the result for `c1ccc(-c2nnc(-c3nn(-c4ccccc4)c4nc5ccccc5nc34)o2)cc1` reads > 100 µM.
For the molecule `COc1ccc(N=Cc2cc(OC)c(OC)c(OC)c2)cc1`, the TGI is > 100 µM.
The molecule `COc1cc([C@@H]2c3cc4c(cc3[C@@H](NC(=O)c3cccc([N+](=O)[O-])c3)C3COC(=O)[C@@H]32)OCO4)cc(OC)c1O` (some centres not stated) yielded a TGI of 1.11 µM.
Consider `O=C1/C(=C/c2ccccc2)CN(C(=O)Oc2ccc(Cl)cc2)C/C1=C\c1ccccc1`, for which the TGI is 11.1 µM.
The same measure, in the same setting: next, `CC1=C[C@@H]2Cc3occc3C(C)(C)[C@@H]2CC1`: 57.3 µM; `O=C(O)c1cc(S(=O)(=O)N=NC=C2c3ccccc3N(O)c3ccccc32)ccc1O`: 53.3 µM.
Turning to `C/C(=N\NC(N)=S)c1ccc(C)cc1C`, the TGI was > 100 µM.
On the same count and under the same terms, next, `COc1ccc(/C=C(/C(=O)O)c2cc(OC)c(OC)c(OC)c2)cc1`: > 100 µM; `OCc1c(-c2cccc3ccccc23)sc(-c2cccc3ccccc23)c1CO`: 30.1 µM.
As for `O=c1c(Cl)c(Cl)cnn1-c1ccccc1`, the GI50 is 2.04 µM and 5.73 µM; the TGI was 5.68 µM and 13.3 µM.
For the molecule `OCCNCO`, the TGI was > 100 µM.
Turning to `O=C(N/N=C/c1cccc(O)c1O)N/N=C/c1cccc(O)c1O`, the TGI was > 100 µM.
`COc1cc2c(c(O)c1C)C(=O)C(Cl)=CC2=O`: the TGI came out at 25 µM.
Same read-out and setting: the result for `C[Si](C)(C)c1ccc(CC2(Cc3ccc([Si](C)(C)C)cc3)CCNC2)cc1` reads 3.47 µM.

Another assay relates to HT29 colon. In words: inhibition of tumour cell growth, NCI panel, 48 h.
For the molecule `CC1=CCCC(OC(N)=O)C1` (configuration not stated), the TGI was > 100 µM.
On the same count and under the same terms, the result for `c1ccc(-c2nnc(-c3nn(-c4ccccc4)c4nc5ccccc5nc34)o2)cc1` reads > 100 µM; that for `COc1ccc(N=Cc2cc(OC)c(OC)c(OC)c2)cc1`, > 100 µM.
Still for that read-out and setting: next, `COc1cc([C@@H]2c3cc4c(cc3[C@@H](NC(=O)c3cccc([N+](=O)[O-])c3)C3COC(=O)[C@@H]32)OCO4)cc(OC)c1O` (some centres not stated): 11.7 µM.
`O=C1/C(=C/c2ccccc2)CN(C(=O)Oc2ccc(Cl)cc2)C/C1=C\c1ccccc1` had a TGI of 2.97 µM.
The same measure, in the same setting: next, `CC1=C[C@@H]2Cc3occc3C(C)(C)[C@@H]2CC1`: 30.3 µM.
Same read-out and setting: next, `O=C(O)c1cc(S(=O)(=O)N=NC=C2c3ccccc3N(O)c3ccccc32)ccc1O`: > 100 µM; `C/C(=N\NC(N)=S)c1ccc(C)cc1C`: > 100 µM.
Regarding `COc1ccc(/C=C(/C(=O)O)c2cc(OC)c(OC)c(OC)c2)cc1`, the TGI was > 100 µM.
`OCc1c(-c2cccc3ccccc23)sc(-c2cccc3ccccc23)c1CO` showed a TGI of 31.5 µM.
With `O=c1c(Cl)c(Cl)cnn1-c1ccccc1`, the GI50 is 1.75 µM and 3.77 µM; the TGI is 3.38 µM and 8.06 µM.
Take `OCCNCO`: the TGI was > 100 µM.
Consider `O=C(N/N=C/c1cccc(O)c1O)N/N=C/c1cccc(O)c1O`, for which the TGI was > 100 µM.
Still for that read-out and setting: next, `COc1cc2c(c(O)c1C)C(=O)C(Cl)=CC2=O`: 21.9 µM; `C[Si](C)(C)c1ccc(CC2(Cc3ccc([Si](C)(C)C)cc3)CCNC2)cc1`: 4.08 µM.

The subject of another assay is SNB-75 CNS. Description: inhibition of tumour cell growth, NCI panel, 48 h.
Consider `CC1=CCCC(OC(N)=O)C1` (configuration not stated), for which the TGI was > 100 µM.
As for `c1ccc(-c2nnc(-c3nn(-c4ccccc4)c4nc5ccccc5nc34)o2)cc1`, the TGI is > 100 µM.
For the molecule `COc1ccc(N=Cc2cc(OC)c(OC)c(OC)c2)cc1`, the TGI was > 100 µM.
`COc1cc([C@@H]2c3cc4c(cc3[C@@H](NC(=O)c3cccc([N+](=O)[O-])c3)C3COC(=O)[C@@H]32)OCO4)cc(OC)c1O` (some centres not stated): the TGI came out at 9.55 µM.
On the same count and under the same terms, the result for `O=C1/C(=C/c2ccccc2)CN(C(=O)Oc2ccc(Cl)cc2)C/C1=C\c1ccccc1` reads 12.6 µM; that for `CC1=C[C@@H]2Cc3occc3C(C)(C)[C@@H]2CC1`, 33.5 µM; that for `O=C(O)c1cc(S(=O)(=O)N=NC=C2c3ccccc3N(O)c3ccccc32)ccc1O`, 7.77 µM.
The same measure, in the same setting: next, `C/C(=N\NC(N)=S)c1ccc(C)cc1C`: > 100 µM; `COc1ccc(/C=C(/C(=O)O)c2cc(OC)c(OC)c(OC)c2)cc1`: 79 µM.
The same measure, in the same setting: next, `OCc1c(-c2cccc3ccccc23)sc(-c2cccc3ccccc23)c1CO`: 30.7 µM; `O=c1c(Cl)c(Cl)cnn1-c1ccccc1`: 5.71 µM and 29.7 µM; `OCCNCO`: > 100 µM.
In turn, `O=C(N/N=C/c1cccc(O)c1O)N/N=C/c1cccc(O)c1O` displayed a TGI of 50.4 µM.
On the same count and under the same terms, next, `COc1cc2c(c(O)c1C)C(=O)C(Cl)=CC2=O`: 31.5 µM.
The molecule `C[Si](C)(C)c1ccc(CC2(Cc3ccc([Si](C)(C)C)cc3)CCNC2)cc1` registered a TGI of 7.67 µM.

A further assay relates to U251 CNS. In words: inhibition of tumour cell growth, NCI panel, 48 h.
Take `CC1=CCCC(OC(N)=O)C1` (configuration not stated): the TGI was > 100 µM.
Still for that read-out and setting: next, `c1ccc(-c2nnc(-c3nn(-c4ccccc4)c4nc5ccccc5nc34)o2)cc1`: > 100 µM; `COc1ccc(N=Cc2cc(OC)c(OC)c(OC)c2)cc1`: > 100 µM; `COc1cc([C@@H]2c3cc4c(cc3[C@@H](NC(=O)c3cccc([N+](=O)[O-])c3)C3COC(=O)[C@@H]32)OCO4)cc(OC)c1O` (some centres not stated): 1.26 µM.
On the same count and under the same terms, the result for `O=C1/C(=C/c2ccccc2)CN(C(=O)Oc2ccc(Cl)cc2)C/C1=C\c1ccccc1` reads 2.97 µM; that for `CC1=C[C@@H]2Cc3occc3C(C)(C)[C@@H]2CC1`, 32.7 µM; that for `O=C(O)c1cc(S(=O)(=O)N=NC=C2c3ccccc3N(O)c3ccccc32)ccc1O`, > 100 µM.
With `C/C(=N\NC(N)=S)c1ccc(C)cc1C`, the TGI is > 100 µM.
Still for that read-out and setting: the result for `COc1ccc(/C=C(/C(=O)O)c2cc(OC)c(OC)c(OC)c2)cc1` reads > 100 µM.
In turn, `OCc1c(-c2cccc3ccccc23)sc(-c2cccc3ccccc23)c1CO` yielded a TGI of 24.9 µM.
Still for that read-out and setting: the result for `O=c1c(Cl)c(Cl)cnn1-c1ccccc1` reads 3.37 µM and 7.42 µM.
Same read-out and setting: next, `OCCNCO`: > 100 µM.
The same measure, in the same setting: the result for `O=C(N/N=C/c1cccc(O)c1O)N/N=C/c1cccc(O)c1O` reads > 100 µM; that for `COc1cc2c(c(O)c1C)C(=O)C(Cl)=CC2=O`, 47.3 µM; that for `C[Si](C)(C)c1ccc(CC2(Cc3ccc([Si](C)(C)C)cc3)CCNC2)cc1`, 3.02 µM.
